Results on 21 compounds are retold here after patent publication US20230058961A1, “SUBSTITUTED HETEROCYCLICS WITH THERAPEUTIC ACTIVITY IN HIV” (New York Blood Center, Inc., priority 2019, published 2023).

The subject of data set [1] is TZM-bl cells. The settings on record: human, 3 days.
Experimental: (§1) The anti-HIV-1 activity was assessed in a single-cycle assay by infecting TZM-bl indicator cells with the pseudovirus HIV-1 HXB2 according to established procedures (F. Curreli, Y. D. Kwon, D. S. Belov, R. R. Ramesh, A. V. Kurkin, A. Altieri, P. D. Kwong, A. K. Debnath, J Med Chem 2017, 60, 3124-3153; which is incorporated herein by reference for all that it teaches about the conduct and interpretation of the assay).
(§2) The cytotoxicity of the small polycyclic molecules in TZM-bl cells was determined by using the colorimetric method CellTiter 96® AQueous One Solution Cell Proliferation Assay (MTS) (Promega) following the manufacturer's instructions. Briefly, TZM-bl cells were platted in a 96-well tissue culture plate at 1×10^4/well and cultured at 37° C. Following overnight incubation, the cells were incubated with 100 μl of the compounds at graded concentrations and cultured for 3 days. The MTS reagent was added to the cells and incubated for 4 h at 37° C. The absorbance was recorded at 490 nm.
Data set [2] has as its system pseudovirus HIV-1 HXB2. The experiment in a line: organism not typed. In kind it is cell-based. To be noted: anti-HIV-1 activity, single-cycle assay, TZM-bl cells, pseudovirus HIV-1 HXB2, read-out: IC50.
Data set [3] in a line: in vitro. To be noted: human.
Experimental: as §1, §2
[4] abbreviates: Human immunodeficiency virus 1, HXB2, TZM-bl.

Consider `NCC(NC(=O)c1ccc(-c2ccc(C(F)(F)F)cn2)[nH]1)c1ncc(C(O)CO)s1` (centres unmarked) [Compound 14, N-(2-Amino-1-(5-(1,2-dihydroxyethyl)thiazol-2-yl)ethyl)-5-(5-(trifluoromethyl)pyridin-2-yl)-1H-pyrrole-2-carboxamide], for which the CC50 in data set [1] was > 113 µM. The IC50 (in general, the midpoint of a concentration-inhibition curve) in data set [2] is 5.9 ± 0.6 µM.
In the same order, the values of `COc1cc(-c2ccc(C(=O)NC(CN)c3nc(CO)cs3)[nH]2)ccn1` (centres unmarked) [Compound 48, N-(2-Amino-1-(4-(hydroxymethyl)thiazol-2-yl)ethyl)-5-(2-methoxypyridin-4-yl)-1H-pyrrole-2-carboxamide] are > 133 µM and > 11 µM.
In the same order, the values of `NCC(NC(=O)c1ccc(-c2ccc(C(F)(F)F)cn2)[nH]1)c1csc(CO)n1` (centres unmarked) [Compound 66, N-(2-Amino-1-(2-(hydroxymethyl)thiazol-4-yl)ethyl)-5-(5-(trifluoromethyl)pyridin-2-yl)-1H-pyrrole-2-carboxamide] are 85.1 ± 2.5 µM and 1.7 ± 0.2 µM.
Take `NCC(NC(=O)c1ccc(-c2ccc(C(F)(F)F)nn2)[nH]1)c1nc(CO)cs1` (centres unmarked) [Compound 44, N-(2-Amino-1-(4-(hydroxymethyl)thiazol-2-yl)ethyl)-5-(6-(trifluoromethyl)pyridazin-3-yl)-1H-pyrrole-2-carboxamide]: in data set [1], the CC50 was > 73 µM. Further, the IC50 in data set [2] is > 12 µM.
`NCC(NC(=O)c1ccc(-c2ccc(Cl)cn2)[nH]1)c1ncc(CO)s1` (centres unmarked) [Compound 1, N-(2-Amino-1-(5-(hydroxymethyl)thiazol-2-yl)ethyl)-5-(5-chloropyridin-2-yl)-1H-pyrrole-2-carboxamide] had a CC50 in data set [1] of 144 ± 7.5 µM. In addition, the CC50 at 3 days in data set [3] (CC50, cytotoxicity, TZM-bl cells, MTS, 3 days) is > 100 µM. In data set [2], the IC50 came out at 0.85 ± 0.1 µM.
Regarding `NCC(NC(=O)c1ccc(-c2ccc(Cl)cn2)[nH]1)c1csc(CO)n1` (centres unmarked) [Compound 68, N-(2-Amino-1-(2-(hydroxymethyl)thiazol-4-yl)ethyl)-5-(5-chloropyridin-2-yl)-1H-pyrrole-2-carboxamide], the CC50 in data set [1] is > 106 µM. In data set [2] (setting [4]), the half-inhibitory concentration (IC50) is 8.2 ± 2.1 µM.
Consider `NCC(NC(=O)c1ccc(-c2ccc(C(F)(F)F)cn2)[nH]1)c1csc(C(=O)NCCO)n1` (centres unmarked) [Compound 70, 4-(2-Amino-1-(5-(5-(trifluoromethyl)pyridin-2-yl)-1H-pyrrole-2-carboxamido)ethyl)-N-(2-hydroxyethyl)thiazole-2-carboxamide], for which, in data set [1], the CC50 is > 107 µM. Further, in data set [2], the IC50 was > 21.3 µM.
In the same order, the values of `Cc1cc(-c2ccc(Cl)cn2)[nH]c1C(=O)NC(CN)c1ncc(CO)s1` (centres unmarked) [Compound 4, N-(2-Amino-1-(5-(hydroxymethyl)thiazol-2-yl)ethyl)-5-(5-chloropyridin-2-yl)-3-methyl-1H-pyrrole-2-carboxamide] are 95 ± 3.6 µM and 2.4 ± 0.2 µM.
In the same order, the values of `NCC(NC(=O)c1ccc(-c2ccc(C(F)(F)F)cn2)[nH]1)c1nc(CCO)cs1` (centres unmarked) [Compound 26, N-(2-Amino-1-(4-(2-hydroxyethyl)thiazol-2-yl)ethyl)-5-(5-(trifluoromethyl)pyridin-2-yl)-1H-pyrrole-2-carboxamide] are 91 ± 3.6 µM and 0.76 µM.
In the case of `NCC(NC(=O)c1ccc(-c2ccc(C(F)(F)F)cn2)[nH]1)c1nc(C(O)CO)cs1` (centres unmarked) [Compound 30, N-(2-Amino-1-(4-(1,2-dihydroxyethyl)thiazol-2-yl)ethyl)-5-(5-(trifluoromethyl)pyridin-2-yl)-1H-pyrrole-2-carboxamide], the CC50 in data set [1] is > 113 µM. Besides, the IC50 in data set [2] was found to be 3.8 ± 0.2 µM.
The matching figures for `NCC(NC(=O)c1ccc(-c2ccc(C(F)(F)F)cn2)[nH]1)c1nc(CCCO)cs1` (centres unmarked) [Compound 28, N-(2-Amino-1-(4-(3-hydroxypropyl)thiazol-2-yl)ethyl)-5-(5-(trifluoromethyl)pyridin-2-yl)-1H-pyrrole-2-carboxamide]: 81.2 ± 1.3 µM and 0.89 ± 0.12 µM.
The matching figures for `NCC(NC(=O)c1ccc(-c2ccc(Cl)cn2)[nH]1)c1cnc(CO)s1` (centres unmarked) [Compound 60, N-(2-Amino-1-(2-(hydroxymethyl)thiazol-5-yl)ethyl)-5-(5-chloropyridin-2-yl)-1H-pyrrole-2-carboxamide]: > 106 µM and 3.6 ± 0.4 µM.
The matching figures for `NCC(NC(=O)c1ccc(-c2ccc(Cl)nc2)[nH]1)c1nc(CO)cs1` (centres unmarked) [Compound 40, N-(2-Amino-1-(4-(hydroxymethyl)thiazol-2-yl)ethyl)-5-(6-chloropyridin-3-yl)-1H-pyrrole-2-carboxamide]: > 132 µM and > 11 µM.
The compound `NCC(NC(=O)c1ccc(-c2ccc(C(F)(F)F)cn2)[nH]1)c1nccs1` (centres unmarked) [Compound 38, N-(2-Amino-1-(thiazol-2-yl)ethyl)-5-(5-(trifluoromethyl)pyridin-2-yl)-1H-pyrrole-2-carboxamide] gave a CC50 in data set [1] of 93.6 ± 1.5 µM. For the same compound, in data set [2], the 50% inhibitory concentration (IC50) came out at 1.2 ± 0.03 µM.
In data set [1], `CC(C)(N)C(NC(=O)c1ccc(-c2ccc(C(F)(F)F)cn2)[nH]1)c1ncc(CO)s1` (centres unmarked) [Compound 9, N-(2-Amino-1-(5-(hydroxymethyl)thiazol-2-yl)-2-methylpropyl)-5-(5-(trifluoromethyl)pyridin-2-yl)-1H-pyrrole-2-carboxamide] came in with a CC50 of 74 ± 3.6 µM. Also, in data set [3] (CC50), the CC50 at 3 days is < 50 µM.
Turning to `Cc1ccc(-c2ccc(C(=O)NC(CN)c3nc(CO)cs3)[nH]2)nc1` (centres unmarked) [Compound 20, N-(2-Amino-1-(4-(hydroxymethyl)thiazol-2-yl)ethyl)-5-(5-methylpyridin-2-yl)-1H-pyrrole-2-carboxamide], the CC50 in data set [1] was > 140 µM. For the same compound, the figures for the half-inhibitory concentration (IC50) in data set [2] (setting [4]) and in data set [2] were > 10 µM and > 11 µM, respectively.
In data set [1], `CC(C)(N)C(NC(=O)c1ccc(-c2ccc(C(F)(F)F)cn2)[nH]1)c1ncc(CO)s1` (centres unmarked) [Compound 10, N-(2-Amino-1-(5-(hydroxymethyl)thiazol-2-yl)-2-methylpropyl)-5-(5-(trifluoromethyl)pyridin-2-yl)-1H-pyrrole-2-carboxamide] registered a CC50 of 41 ± 2.5 µM. The IC50 in data set [2] worked out at 0.5 µM.
The matching figures for `NCC(NC(=O)c1ccc(-c2ccc(C(F)(F)F)nc2)[nH]1)c1nc(CO)cs1` (centres unmarked) [Compound 42, N-(2-Amino-1-(4-(hydroxymethyl)thiazol-2-yl)ethyl)-5-(6-(trifluoromethyl)pyridin-3-yl)-1H-pyrrole-2-carboxamide]: > 122 µM and 11.9 ± 1.9 µM.
The matching figures for `NCC(NC(=O)c1ccc(-c2ncc(Cl)cn2)[nH]1)c1nc(CO)cs1` (centres unmarked) [Compound 46, N-(2-Amino-1-(4-(hydroxymethyl)thiazol-2-yl)ethyl)-5-(5-chloropyrimidin-2-yl)-1H-pyrrole-2-carboxamide]: > 66 µM and > 15.8 µM.
In the same order, the values of `NCC(NC(=O)c1ccc(-c2ccc(C(F)(F)F)cn2)[nH]1)c1ncc(CO)s1` (centres unmarked) [Compound 6, N-(2-Amino-1-(5-(hydroxymethyl)thiazol-2-yl)ethyl)-5-(5-(trifluoromethyl)pyridin-2-yl)-1H-pyrrole-2-carboxamide] are > 122 µM and 1.2 µM.
As for `NCC(NC(=O)c1ccc(-c2ccc(C(F)(F)F)cn2)[nH]1)c1nc(CO)c(CO)s1` (centres unmarked) [Compound 36, N-(2-Amino-1-(4,5-bis(hydroxymethyl)thiazol-2-yl)ethyl)-5-(5-(trifluoromethyl)pyridin-2-yl)-1H-pyrrole-2-carboxamide], the CC50 in data set [1] is > 113 µM. In data set [2], the IC50 was 13 µM.
